The source of these data is US20020192703A1, “Immunoassay reagents and methods for determination of LSD and LSD metabolites” (priority 1995, published 2002).

The subject of the experiment is monoclonal antibody 19A7. It counts as binding, mice. The protocol: Cross-reactivity was tested by spiking various potential cross-reactants into human urine containing a preservative.
[1] abbreviates: Concentration Added 10,000 ng/ml, 100 × observed dose / concentration added.
Where [2] appears, read: Concentration Added 10,000 ng/ml, in human urine.
[3] abbreviates: Concentration Added 500,000 ng/ml, 100 × observed dose / concentration added.
Where [4] appears, read: Concentration Added 500,000 ng/ml, in human urine.
The mark [5] stands for this setting: Concentration Added 100,000 ng/ml, 100 × observed dose / concentration added.
[6] abbreviates: Concentration Added 100,000 ng/ml, in human urine.
The mark [7] stands for this setting: Concentration Added 50,000 ng/ml, 100 × observed dose / concentration added.
Where [8] appears, read: Concentration Added 50,000 ng/ml, in human urine.

Where a name gives a salt, the structure may show the parent alone. Read-outs that look alike come from different tables or passages of the source. Where only a bound is given, the exact number is not on record here.

With `CCN(CC)C(=O)[C@@H]1C=C2c3cccc4c3C(O)(C[C@H]2N(C)C1)C(=O)N4` (some centres unmarked) [2oxo-3hydroxy LSD], the “% Cross-Reactivity” value (Concentration Added 30 ng/ml, 100 × observed dose / concentration added) is on record as 1.82%. Moreover, where the note is “Concentration Added 30 ng/ml, in human urine”, the “Concentration Observed” value was found to be 0.55 ng/mL.

Consider `CCCCCc1cc(O)c2c(c1)OC(C)(C)[C@@H]1CCC(C(=O)O)=C[C@@H]21` [11-nor-Δ^9-THC-COOH], for which the “% Cross-Reactivity” value under setting [1] is less than 0.0001%. Under setting [2], the “Concentration Observed” value is reported as 0.0 ng/mL.

Turning to `CC(=O)Oc1ccccc1C(=O)O` [Acetylsalicylic Acid], the “% Cross-Reactivity” value under setting [3] is less than 0.00001%. For the same compound, under setting [4], the “Concentration Observed” value came out at 0.0 ng/mL.

Turning to `CC(C)C[C@H]1C(=O)N2CCC[C@H]2[C@]2(O)O[C@](NC(=O)[C@@H]3C=C4c5cccc6[nH]cc(c56)C[C@H]4N(C)C3)(C(C)C)C(=O)N12` [Alpha Ergotryptine], the “% Cross-Reactivity” value under setting [3] was determined as 0.00000%. Moreover, the “Concentration Observed” value under setting [4] was determined as 0.25 ng/mL.

As for `CC1(C)S[C@@H]2[C@H](NC(=O)[C@H](N)c3ccc(O)cc3)C(=O)N2[C@H]1C(=O)O` [Amoxicillin], the “% Cross-Reactivity” value is less than 0.00001% and the “Concentration Observed” value turned out to be 0.0 ng/mL.

`CC(N)Cc1ccccc1` (centres unmarked) [Amphetamine]: the “% Cross-Reactivity” value under setting [3] is less than 0.00001%. Further, the “Concentration Observed” value under setting [4] came to 0.0 ng/mL.

In the case of `CN1[C@H]2CC[C@@H]1[C@@H](C(=O)O)[C@@H](OC(=O)c1ccccc1)C2` [Benzoylecgonine], the “% Cross-Reactivity” value under setting [3] is less than 0.00001%. Also, the “Concentration Observed” value under setting [4] was found to be 0.0 ng/mL.

Turning to `C[C@H](CS)C(=O)N1CCC[C@H]1C(=O)O` [Captopril], the “% Cross-Reactivity” value under setting [3] is given as less than 0.00001%. The “Concentration Observed” value under setting [4] worked out at 0.0 ng/mL.

As to `CN/C(=N/CCSCc1nc[nH]c1C)NC#N` [Cimetidine], the “% Cross-Reactivity” value is reported as less than 0.00001% and the “Concentration Observed” value is given as 0.0 ng/mL.

Consider `COc1ccc2c3c1O[C@H]1[C@@H](O)C=C[C@H]4[C@@H](C2)N(C)CC[C@@]341` [Codeine], for which, under setting [3], the “% Cross-Reactivity” value is reported as less than 0.00001%. The “Concentration Observed” value under setting [4] came out at 0.0 ng/mL.

Regarding `CN1C(=O)CN=C(c2ccccc2)c2cc(Cl)ccc21` [Diazepam], the “% Cross-Reactivity” value is on record as less than 0.00001% and the “Concentration Observed” value is listed as 0.0 ng/mL.

Consider `C[C@H]1O[C@@H](O[C@H]2[C@@H](O)C[C@H](O[C@H]3[C@@H](O)C[C@H](O[C@H]4CC[C@@]5(C)[C@H](CC[C@@H]6[C@@H]5C[C@@H](O)[C@]5(C)[C@@H](C7=CC(=O)OC7)CC[C@]65O)C4)O[C@@H]3C)O[C@@H]2C)C[C@H](O)[C@@H]1O` [Digoxin], for which the “% Cross-Reactivity” value under setting [5] was less than 0.00001%. Also, the “Concentration Observed” value under setting [6] came out at 0.0 ng/mL.

For `CN1C[C@H](C(=O)N[C@]2(C)O[C@@]3(O)[C@@H]4CCCN4C(=O)[C@H](Cc4ccccc4)N3C2=O)C[C@@H]2c3cccc4[nH]cc(c34)C[C@H]21` [Dihydroergotaimine], the “% Cross-Reactivity” value (Concentration Added 125,000 ng/ml, 100 × observed dose / concentration added) stood at 0.00005%. Moreover, under “Concentration Added 125,000 ng/ml, in human urine”, the “Concentration Observed” value is on record as “≦0.01 ng/mL”.

On to `COC(=O)[C@@H]1[C@H]2CC[C@@H](C[C@@H]1O)N2C` [Ecogonine Methyl Ester], for which the “% Cross-Reactivity” value under setting [5] was found to be 0.00000%. The “Concentration Observed” value under setting [6] was “≦0.01 ng/mL”.

`CN1[C@H]2CC[C@@H]1[C@@H](C(=O)O)[C@@H](O)C2` [Ecogonine]: the “% Cross-Reactivity” value under setting [5] came to 0.00000%. Further, the “Concentration Observed” value under setting [6] is “≦0.01 ng/mL”.

As to `CCOC(=O)[C@H](CCc1ccccc1)N[C@@H](C)C(=O)N1CCC[C@H]1C(=O)O` [Enalapril], under setting [3], the “% Cross-Reactivity” value is less than 0.00001%. The “Concentration Observed” value under setting [4] came to 0.0 ng/mL.

Regarding `C[C@@H](CO)NC(=O)[C@@H]1C=C2c3cccc4[nH]cc(c34)C[C@H]2N(C)C1` [Ergonovine], under setting [1], the “% Cross-Reactivity” value was found to be 0.007%. In addition, under setting [2], the “Concentration Observed” value is listed as 0.58 ng/mL.

As for `CN1C[C@H](C(=O)N[C@]2(C)O[C@@]3(O)[C@@H]4CCCN4C(=O)[C@H](Cc4ccccc4)N3C2=O)C=C2c3cccc4[nH]cc(c34)C[C@H]21` [Ergotamine], the “% Cross-Reactivity” value under setting [5] worked out at 0.00000%. Further, the “Concentration Observed” value under setting [6] is listed as “≦0.01 ng/mL”.

Regarding `CNCCC(Oc1ccc(C(F)(F)F)cc1)c1ccccc1` (centres unmarked) [Fluoxetine], the “% Cross-Reactivity” value (Concentration Added 400000 ng/mL, 100 × observed dose / concentration added) amounted to 0.00012%. Also, the “Concentration Observed” value (Concentration Added 400000 ng/mL, in human urine) is listed as 0.48 ng/mL.

For the compound `CC(C)Cc1ccc(C(C)C(=O)O)cc1` (centres unmarked) [Ibuprofen], the “% Cross-Reactivity” value under setting [3] is less than 0.00001%. In addition, the “Concentration Observed” value under setting [4] amounted to 0.0 ng/mL.

For `CCN(CC)C(=O)[C@H]1C=C2c3cccc4[nH]cc(c34)C[C@H]2N(C)C1` [Iso LSD], the “% Cross-Reactivity” value (Concentration Added 2,500 ng/ml, 100 × observed dose / concentration added) was 0.04%. Also, under “Concentration Added 2,500 ng/ml, in human urine”, the “Concentration Observed” value was 0.93 ng/mL.

For `N[C@@H](Cc1cc(I)c(Oc2cc(I)c(O)c(I)c2)c(I)c1)C(=O)O` [Levothyroxine (T4), Levothyroxine], the “% Cross-Reactivity” value under setting [7] was less than 0.0001%. For the same compound, the “Concentration Observed” value under setting [8] came out at 0.0 ng/mL.

Turning to `CN1C[C@H](C(=O)O)C=C2c3cccc4[nH]cc(c34)C[C@H]21` [Lysergic Acid], the “% Cross-Reactivity” value is reported as 0.00000% and the “Concentration Observed” value is given as “≦0.01 ng/mL”.

As to `CN1C[C@H](CO)C=C2c3cccc4[nH]cc(c34)C[C@H]21` [Lysergol], the “% Cross-Reactivity” value (Concentration Added 5,000 ng/ml, 100 × observed dose / concentration added) is listed as 0.00034%. In addition, the “Concentration Observed” value (Concentration Added 5,000 ng/ml, in human urine) came out at 0.01 ng/mL.

Take `CN[C@@H](C)Cc1ccccc1` [Methamphetamine]: the “% Cross-Reactivity” value (Concentration Added 200000 ng/mL, 100 × observed dose / concentration added) was determined as 0.00019%. In addition, for the setting “Concentration Added 200000 ng/mL, in human urine”, the “Concentration Observed” value amounted to 0.45 ng/mL.

In the case of `CC[C@@H](CO)NC(=O)[C@@H]1C=C2c3cccc4c3c(cn4C)C[C@H]2N(C)C1` [Methysergide Maleate], the “% Cross-Reactivity” value under setting [7] is given as 0.00147%. In addition, the “Concentration Observed” value under setting [8] was 0.74 ng/mL.

For the compound `CN1CC[C@]23c4c5ccc(O)c4O[C@H]2[C@@H](O)C=C[C@H]3[C@H]1C5` [Morphine], the “% Cross-Reactivity” value is given as less than 0.00001% and the “Concentration Observed” value is on record as 0.0 ng/mL.

For `c1ccc(C2(N3CCCCC3)CCCCC2)cc1` [Phencyclidine], under setting [3], the “% Cross-Reactivity” value worked out at 0.00002%. In addition, the “Concentration Observed” value under setting [4] was 0.11 ng/mL.

As for `CN(C)CCc1c[nH]c2cccc(O)c12` [Psilocyn], under setting [1], the “% Cross-Reactivity” value is reported as 0.00000%. Further, under setting [2], the “Concentration Observed” value is listed as “≦0.01 ng/mL”.

Turning to `C=CCC1(C(C)CCC)C(=O)NC(=O)NC1=O` (centres unmarked) [Secobarbital], under setting [3], the “% Cross-Reactivity” value is listed as less than 0.00001%. For the same compound, under setting [4], the “Concentration Observed” value was found to be 0.0 ng/mL.

Turning to `NCCc1c[nH]c2ccc(O)cc12` [Seretonine], the “% Cross-Reactivity” value (Concentration Added 1,000,000 ng/ml, 100 × observed dose / concentration added) was determined as 0.00000%. Besides, the “Concentration Observed” value (Concentration Added 1,000,000 ng/ml, in human urine) is “≦0.01 ng/mL”.

For `Cc1ccc(C(=O)c2ccc(CC(=O)O)n2C)cc1` [Tolmetin], under setting [3], the “% Cross-Reactivity” value is on record as less than 0.00001%. In addition, the “Concentration Observed” value under setting [4] is recorded as 0.0 ng/mL.

Consider `N[C@@H](Cc1c[nH]c2ccccc12)C(=O)O` [Tryptophan], for which the “% Cross-Reactivity” value under setting [5] was 0.00000%. Further, under setting [6], the “Concentration Observed” value was “≦0.01 ng/mL”.

`CCCN(C)C(=O)[C@@H]1C=C2c3cccc4[nH]cc(c34)C[C@H]2N(C)C1` [d-LAMPA, Lysergic acid methyl-propyl amide]: the “% Cross-Reactivity” value (Concentration Added 0.5 ng/ml, 100 × observed dose / concentration added) worked out at 58.7%. Also, the “Concentration Observed” value (Concentration Added 0.5 ng/ml, in human urine) came to 0.29 ng/mL.
